These results are taken from ChEMBL document CHEMBL1138660, “Contribution of ionization and lipophilicity to drug binding to albumin: a preliminary step toward biodistribution prediction” (J Med Chem, 2004).

The conditions of data set [1]: human, plasma.
A short description of data set [2]: physchem. To be noted: buffer, pH 7.4.
Description: Distribution coeeficient for the compound at pH7.4 (Log D7.4)
Data set [3] in a line: physchem.
Description: pKa value of the compound

As for `CCCC(=O)Nc1ccc(OCC(O)CNC(C)C)c(C(C)=O)c1` (centres undefined) [ACEBUTOLOL], the “B(DPB)” value in data set [1] amounted to 0%.

Regarding `NS(=O)(=O)c1cc(C(=O)O)c(NCc2ccco2)cc1Cl` [FUROSEMIDE], the “B(DPB)” value in data set [1] is reported as 87.2%.

On to `CN(Cc1cnc2nc(N)nc(N)c2n1)c1ccc(C(=O)N[C@@H](CCC(=O)O)C(=O)O)cc1` [METHOTREXATE], for which the “B(DPB)” value in data set [1] is listed as 49.9%. Further, the log distribution coefficient (logD) (usually lipophilicity at a set pH, counting ionised and neutral species) in the data set “physchem [2]” is -2.52.

In the case of `COc1ccc2cc([C@H](C)C(=O)O)ccc2c1` [NAPROXEN], the “B(DPB)” value in data set [1] is listed as over 95%.

On to `COC(=O)C1=C(C)NC(C)=C(C(=O)OCCN(C)Cc2ccccc2)C1c1cccc([N+](=O)[O-])c1` (centres undefined) [NICARDIPINE], for which the “B(DPB)” value in data set [1] turned out to be 93.4%. In addition, the pKa – broadly, the negative logarithm of the acid dissociation constant – in “physchem [3]” turned out to be 7.17. Also, the log distribution coefficient (logD) in “physchem [2]” was found to be 4.25.

On to `CNC(=C[N+](=O)[O-])NCCSCc1ccc(CN(C)C)o1` [RANITIDINE], for which the “B(DPB)” value in data set [1] worked out at 3.9%. The pKa in “physchem [3]” is 8.48. The compound further came in with a log distribution coefficient (logD) in “physchem [2]” of -0.48.

Take `CN1C(C(=O)Nc2ccccn2)=C(O)c2sccc2S1(=O)=O` [TENOXICAM]: the “B(DPB)” value in data set [1] is 89.6%. The compound also came in with a pKa in the data set “physchem [3]” of 4.95. In addition, in “physchem [2]”, the pH-dependent lipophilicity (logD) was -0.32.
